Experimental findings from PMC6097783, “β-N-Acetylglucosaminidase MthNAG from Myceliophthora thermophila C1, a thermostable enzyme for production of N-acetylglucosamine from chitin” (Applied Microbiology and Biotechnology, 2018) are described below.

For data set [1], the target named is T1, MthNAG (Thermothelomyces thermophilus, UniProt G2Q2L6).
T1 construct: gene MYCTH_2294755; full-length GH20 secreted enzyme, 582-residue precursor with 21-residue signal peptide; homologously overexpressed in M. thermophila C1, purified by IEX and SEC, no tag told; most similar to XP_003658680 of strain ATCC 42464
T1 sequence (G2Q2L6 22-582): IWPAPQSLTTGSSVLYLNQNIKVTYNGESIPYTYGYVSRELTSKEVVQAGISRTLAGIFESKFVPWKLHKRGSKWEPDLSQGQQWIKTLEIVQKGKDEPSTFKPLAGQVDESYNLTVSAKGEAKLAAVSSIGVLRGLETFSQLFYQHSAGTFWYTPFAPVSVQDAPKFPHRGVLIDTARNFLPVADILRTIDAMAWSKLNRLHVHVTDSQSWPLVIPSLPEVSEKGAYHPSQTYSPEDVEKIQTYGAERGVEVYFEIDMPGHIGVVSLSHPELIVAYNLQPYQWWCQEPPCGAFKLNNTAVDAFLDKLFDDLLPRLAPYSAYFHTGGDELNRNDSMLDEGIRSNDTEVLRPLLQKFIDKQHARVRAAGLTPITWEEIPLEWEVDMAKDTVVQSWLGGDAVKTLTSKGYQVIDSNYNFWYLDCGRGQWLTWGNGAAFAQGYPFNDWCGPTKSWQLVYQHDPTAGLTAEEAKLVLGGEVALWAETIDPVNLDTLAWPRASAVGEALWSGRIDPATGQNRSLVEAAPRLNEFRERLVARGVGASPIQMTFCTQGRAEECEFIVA
Nature of the data set: substrate inhibition kinetics, released GlcNAc by HPAEC. It counts as biochemical. The settings on record: citrate-phosphate buffer 0.1 M, pH 4.5, 50 °C.

Data set [2] concerns the target T1, MthNAG. Nature of the data set: substrate inhibition kinetics, released p-nitrophenol at […] nm. It counts as biochemical. Conditions: citrate-phosphate buffer 0.1 M, pH 4, 50 °C.
Substrate in data set [3]: CC(=O)N[C@H]1[C@H](Oc2ccc([N+](=O)[O-])cc2)O[C@H](CO)[C@@H](O)[C@@H]1O
The data set can be described thus: purified protein. The settings on record: citrate-phosphate buffer 0.1 M, pH 4, 50 °C. It counts as biochemical, Thermothelomyces thermophilus.

Take `CC(=O)N[C@H]1[C@H](O[C@H]2[C@H](O)[C@@H](NC(C)=O)C(O)O[C@@H]2CO)O[C@H](CO)[C@@H](O)[C@@H]1O` (stereo partly shown) [(GlcNAc)2]: the Ki in data set [1] was determined as 500 ± 110 µM. Turning to `CC(=O)N[C@H]1[C@H](Oc2ccc([N+](=O)[O-])cc2)O[C@H](CO)[C@@H](O)[C@@H]1O` [GlcNAc-pNP, 4-nitrophenyl-N-acetylglucosamine], the Ki in data set [2] is 1960 ± 260 µM.

B1: MthNAG (Thermothelomyces thermophilus ATCC 42464) (protein)
chain: T1 sequence (G2Q2L6 22-582)
notes: full-length GH20 secreted enzyme, 582-residue precursor with 21-residue signal peptide; homologously overexpressed in M. thermophila C1, purified by IEX and SEC, no tag told; most similar to XP_003658680 of strain ATCC 42464
For the molecule B1, in data set [3], the Michaelis-Menten constant (Km) (as a rule, the substrate concentration at which the rate is half of its maximum) came to 60 ± 10 µM; the kcat (in general, the number of substrate molecules converted per active site and unit of time at saturation) was 14.0 ± 0.7 s⁻¹.
